Key:
[1] = Determination of foaming behavior, rotor foam method; assay type: physicochemical; settings: added to anionic surfactant (Texapon NSO)
Procedure: To determine foaming behavior, the foaming kinetics after 30 seconds and the foam potential after 60 s and 180 s were measured by the rotor foam method (DIN 13996 in preparation). The rotor foam tester consists of a heatable, double-walled cylindrical glass vessel with an internal diameter of 17.5 cm. A scale in mm is provided on the cylindrical glass vessel for reading off the foam height and the liquid level. In addition, the glass vessel is provided with a Styropor lid which is used both to cover and to insulate the vessel. The stirrer consists of a special stirring head with a stirrer shaft 28 cm in length and 1 cm in diameter and a JK stirrer with a digital revolution counter. A thermostat, a stopwatch and a thermometer (digital) are also required.
The test solution was prepared with water of a certain hardness (15° dH). 200 ml of the sample preheated to 30±1° C. were slowly poured in at the rim of the glass vessel which was covered with the Styropor lid when the required temperature of 30±1° C. had been reached. The rotor speed was 1300 r.p.m.
The first foam height value was determined after 30 seconds. To this end, the stirrer was switched off for at most 10 seconds. The foam volume was then determined after 60 and 180 seconds.

[2] = Determination of surface tension, Wilhelmy plate method (DIN 53914); assay type: physicochemical; settings: added to anionic surfactant (Texapon NSO)
Procedure: Determination of Surface Activity
Surface activity was determined to DIN 53914. To this end, the solution to be tested was tested by the Wilhelmy plate method (plate PT 11) at 21±1° C. The preparations according to the invention are intended to have a surface activity of at least 20 mN/m, preferably at least 25 mN/m and more particularly at least 30 mN/m, based on the active substance content of 5% by weight.
The surface tension of the surfactant solution containing tartaric acid was compared with that of the pure surfactant solution (Texapon® NSO, sodium lauryl ether sulfate; Cognis, Dusseldorf) by conducting measurements at 21±1° C. using the Wilhelmy plate method (plate PT 11) to DIN 53914.

Effect of the addition on the foam behavior of the anionic surfactant [1]	Effect of the addition on the surface activity of the anionic surfactant [2]	Compound
does not significantly affect	does not significantly affect	O=C(O)C(O)C(O)C(=O)O (stereo not shown) [tartaric acid]
does not significantly affect	does not significantly affect	laureth-4-citrate
